According to PMC12741935 (Alzheimer's & Dementia, 2025):

Columns and labels:
[1] = tested on: 14 DIV mouse hippocampal neurons; experiment: oAβ-induced spine loss: drebrin-positive spine density in cultured hippocampal neurons; format: cell-based
Procedure: (§1) For in vitro study, all animal procedures were conducted in accordance with the National Institutes of Health Guide for the Care and Use of Laboratory Animals using protocols approved by the institutional animal care and use committee at Stanford University. Timed pregnant C57BL/6 mice (Strain code: 027) were purchased from Charles River Laboratories and delivered on embryonic day 15 (E15), after which E16 embryos were used for primary hippocampal cultures. Primary embryonic mouse hippocampal neuron cultures were plated on poly‐D‐lysine‐coated (10 µg/mL) glass cover slips at 40,000 to 50,000 cells per well in 12‐well plates (Corning Life Sciences). Cells were seeded in plating medium DMEM/F12 supplemented with 10% fetal bovine serum and 1 × penicillin/streptomycin (PS) for 2 hours. Medium was then changed to B‐27 Plus Neuronal Culture System (Invitrogen) supplemented with PS, and 2 mM glutamine.
(§2) Immunofluorescence was performed as described previously.[24] Briefly, cultured hippocampal neurons were fixed in 4% formaldehyde for 20 minutes, permeabilized for 6 minutes in 80% ice‐cold methanol, and incubated with primary antibodies at 4°C overnight. Primary antibodies used were rabbit polyclonal MAP2 antibody for labeling dendrites (1:1000, #8707, Cell Signaling) and mouse monoclonal drebrin antibody for labeling dendritic spines (1:300; Cat#ADI‐NBA‐110, Enzo). Secondary antibodies consisted of donkey antirabbit or antimouse conjugated with either FITC or Cy3 (1:400; Jackson ImmunoResearch Laboratories, Inc.).
The cultured hippocampal neurons were imaged using an oil‐based 63x objective on a Leica Stellaris 5 confocal microscope. The cell nucleus was stained with DAPI and imaged at a wavelength of 405 nm (blue channel), the dendrites stained by MAP2 were imaged at 488 nm wavelength (green channel), and the drebrin‐stained spines were imaged at a wavelength of 561 nm (red channel). Z‐stack images of neurons were acquired at a 1024 × 1024 resolution, a zoom factor of 1.0, and a z‐step size of 0.5 µm. The number of steps for every z‐stack picture of a neuron were determined by the size of the neuron in the z‐plane, to ensure that the entirety of a neuron is captured in the picture. The areas to be imaged were selected systematically, starting from the top‐left region to proceeding to the bottom‐right region of a coverslip. For imaging, preference was given to field of views containing isolated neurons versus clustered neurons.
For quantification of drebrin‐positive spines in vitro, the images were analyzed using Imaris 9.3 software. Each image consisted of one major neuron and the “filaments” option in Imaris was applied to manually trace along the dendrites of every neuron, by placing starting and seed points at the beginning and along the length of the dendrites, respectively. The largest dendrite diameter (i.e., Starting Point) was set at 9.00 µm threshold while the thinnest dendrite diameter (i.e., Seed Point) was set at 1.00 µm threshold. After manually tracing the dendrites, the spines along the dendrites were assessed using the automatic “spine detection” function in Imaris. […] The spine density (number of spines/dendrite length) was then calculated for each neuron. All image acquisition and quantification were performed in a blind manner. For in vitro quantification of dendrite degeneration, Neurolucida (MBF Biosciences) in the manual mode was used to measure the total dendritic length, numbers of dendrites, and dendritic complexity for each neuron.

[2] = Body weight during chronic twice daily oral dosing of aged 5xFAD mice; format: in vivo; settings: 8- to 9-month-old 5xFAD, twice daily oral administration, within first 31 days; seen with both NVS-PAK1-1 and vehicle
Procedure: Serial blood was collected from n = 3 per treatment group at 0.5, 1, 2, and 4 hours post dose; with terminal blood and brain collected at 4 hours post dose. A staggered cohort of n = 3 per treatment group were assigned to serial blood collections at 0.5, 1, 2, and 8 hours post dose with terminal blood and brain collected at 4 and 24 hours post dose. Informed by exposure data from the initial PK/PD study, a subsequent chronic PK/PD study was designed to evaluate twice daily treatment of 100 mg/kg (PO) in female and male 5xFAD mice compared to age‐ and sex‐matched vehicle‐treated 5xFAD and vehicle‐treated WT littermate controls (Table S2 in supporting information). Terminal blood and brain was collected at 4 hours after the final dose. […] All in vivo target engagement and PK/PD studies were conducted under blinded conditions for age, genotype, and treatment, and the blind was maintained until after analyses were conducted.
Drug concentrations were prepared immediately before dosing each day. The dose volume was delivered at 10 mL/kg based on each subject's daily weight collected just prior to the morning dose and administered via PO. For the chronic PD study, twice daily dosing (BID) was conducted between 7:00 and 9:00 am each morning and 3:00 to 5:00 pm each evening with the same day's formulation stored at 4°C between dosing intervals.

[3] = tested on: 14 DIV mouse hippocampal neurons; experiment: oTau-induced spine loss: drebrin-positive spine density in cultured hippocampal neurons; format: cell-based; settings: oTau 50 nM + inhibitor 24 h vs oTau alone; NVS-PAK1-1 10 nM, NVS-PAK1-C 10 nM, AZ13705339 1 nM, G5555 5 nM
Procedure: as §1, §2
The cultured hippocampal neurons were imaged using an oil‐based 63x objective on a Leica Stellaris 5 confocal microscope. The cell nucleus was stained with DAPI and imaged at a wavelength of 405 nm (blue channel), the dendrites stained by MAP2 were imaged at 488 nm wavelength (green channel), and the drebrin‐stained spines were imaged at a wavelength of 561 nm (red channel). […] The number of steps for every z‐stack picture of a neuron were determined by the size of the neuron in the z‐plane, to ensure that the entirety of a neuron is captured in the picture. […]
For quantification of drebrin‐positive spines in vitro, the images were analyzed using Imaris 9.3 software. […] After manually tracing the dendrites, the spines along the dendrites were assessed using the automatic “spine detection” function in Imaris. […] The spine density (number of spines/dendrite length) was then calculated for each neuron. All image acquisition and quantification were performed in a blind manner. For in vitro quantification of dendrite degeneration, Neurolucida (MBF Biosciences) in the manual mode was used to measure the total dendritic length, numbers of dendrites, and dendritic complexity for each neuron.

[4] = tested on: dendritic spines, layer V of somatosensory cortex; experiment: Golgi staining, dendritic spine density in somatosensory cortex of 5xFAD mice; format: in vivo
Procedure: Drug concentrations were prepared immediately before dosing each day. […] The right hemisphere was subjected to Golgi staining as described previously[29] to assess dendrite morphology and dendritic spine density. Briefly, frozen mice brains were rapidly immersed in a modified Golgi-Cox staining solution (developed and provided by […] Jing and Francis Lee, Cornell University) for 9 days at room temperature in the dark. The brains were then incubated in 30% sucrose in dH2O at 4°C for 72 hours, with the solution refreshed after the first 12 hours. Next, 150 μm sections were prepared using a vibratome and mounted onto slides coated with 0.3% gelatin. After a brief drying period, slides were dipped three times in 40% sucrose and air dried for 72 hours in the dark. After dH2O washes, sections were developed using a staining solution, rinsed again, dehydrated through a graded ethanol series, cleared in xylene, and cover slipped with DPX mounting medium. Brain sections stained using the Golgi-Cox method were imaged with a Zeiss brightfield microscope equipped with the Neurolucida software (MBF Biosciences). The Neurolucida software was used to acquire neuron pictures, trace neuronal dendrites, and quantify dendritic spine density. […] After a neuron was selected, the 100 × oil immersion objective was used to perform real time dendritic tracing using Neurolucida's live mode. The soma was outlined using the “cell body” option followed by manual tracing of apical and basal dendrites using the respective “dendrite tracing” options. After the tracing was finished, spines were manually marked along the dendrites. A.DAT file was saved for each neuron post completion of dendrite and spine tracing and imported into Neurolucida Explorer, which is used to perform quantitative structural analysis and dendrite length and number of spines data for each neuron is exported. The spine density is calculated by dividing number of spines/dendrite length separately for apical and basal dendrites for each neuron.

[5] = young male 5xFAD, 100 mg/kg BID PO 12 weeks

Q: For `CC(C)NC(=O)N1CC[C@H](NC2=Nc3cc(F)ccc3N(CC(F)F)c3ccc(Cl)cc32)C1` [NVS‐PAK1‐1, (S)‐3‐([2‐chloro‐5‐(2,2‐difluoroethyl)‐8‐fluoro‐5H‐dibenzo[b,e][1,4]diazepin‐11‐yl]amino)‐N‐isopropylpyrrolidine‐1‐carboxamide], which EC50 ([1]; Mus musculus, Hippocampal neuron, 24 h, oAβ 1 µM, 24 h, 14 DIV neurons, read-out: EC50, concentration at which NVS-PAK1-1 reduced oAβ-induced loss of spine density by 50%) is on record?
A: 2 nM

Q: What about the “drebrin-stained spine density (spine counts per µm of dendritic length)” value ([1]; oAβ 1 µM + inhibitor 24 h vs oAβ alone, NVS-PAK1-1 10 nM, NVS-PAK1-C 10 nM, AZ13705339 1 nM, G5555 5 nM) of the same compound?
A: significantly higher spine counts

Q: What about the weight loss [2] of the same compound?
A: ≈ 20%

Q: And the “drebrin-stained spine density (spine counts per µm of dendritic length)” value [3]?
A: significantly higher spine counts

Q: And the “apical dendritic spine density, somatosensory cortex” value ([4]; female 5xFAD, 100 mg/kg BID PO 12 weeks from 3 to 6 months of age, P < 0.01)?
A: prevented the loss

Q: And the “basal dendritic spine density, somatosensory cortex” value ([4]; female 5xFAD, 100 mg/kg BID PO 12 weeks from 3 to 6 months of age, P < 0.05)?
A: prevented the loss

Q: And the “apical spine density, somatosensory cortex” value [4, 5]?
A: no significant difference

Q: And the “basal spine density, somatosensory cortex” value [4, 5]?
A: no significant difference
